According to US12497411B2, “Muscarinic acetylcholine receptor subtype 4 antagonists in the treatment of anemia” (COLD SPRING HARBOR LABORATORY, priority 2019, dated 2025):

Tests used:
[1] = test system: PHZ induced hemolytic anemia in C57bl/6 mice; experiment: PHZ induced hemolytic anemia mouse model, CBC; assay type: in vivo; conditions: 60 mg/kg phenylhydrazine
Protocol: Animal experiments were conducted in the Cold Spring Harbor Laboratory Animal Shared Resource in accordance with Institutional Animal Care and Use Committee-approved procedures. 4-6 weeks old C57bl/6 mice, purchased from Jackson Laboratory and randomly distributed into compound and control treatment groups, were given through oral delivery of PCS1055 (50 mg/kg or 100 mg/kg) twice per day or PD102807 (50 mg/kg or 100 mg/kg) once per day everyday for 3 days. On day 3, mice were intraperitoneally injected with 60 mg/kg PHZ. Mice were then given through oral delivery of PD102807 (50 mg/kg or 100 mg/kg) once per day every day for 2 days. Peripheral blood samples were collected retro-orbitally on day 6 using heparinized capillary tubes in blood collection tubes with K2-EDTA. CBC was performed using Hemavet 950. […] C57bl/6 mice were injected with 60 mg/kg phenylhydrazine to induce hemolysis. Mice were delivered with either vehicle control or Compound A or B (30 mg/kg or 100 mg/kg). Peripheral blood samples were collected retro-orbitally using heparinized capillary tubes into blood collection tubes with K2-EDTA. Complete blood counting was performed using Hemavet 950. Hematocrit (HCT), red blood cell (RBC) and hemoglobin (Hb) values are shown. […] C57bl/6 mice were injected with 60 mg/kg phenylhydrazine to induce hemolysis. Mice were delivered with subcutaneous injection with either vehicle control or Compound B (1.5 mg/kg, 3 mg/kg, or 5 mg/kg) or I (0.5 mg/kg, 0.7 mg/kg, or 1 mg/kg). Peripheral blood samples were collected retro-orbitally using heparinized capillary tubes into blood collection tubes with K2-EDTA. Complete blood counting was performed using Hemavet 950. Hematocrit (HCT), red blood cell (RBC) and hemoglobin (Hb) values are shown.

[2] = target: T1, human recombinant CHRM5 receptor (Homo sapiens, UniProt P08912); experiment: Radioligand binding assay, CHRM5; conditions: [3H]4-DAMP (0.3 nM), CHO cell membranes, 60 minutes at room temperature; read-out: Ki M5
T1 construct: expressed in transfected cells; host or cells: CHO cells (membranes)
T1 sequence (P08912 1-532): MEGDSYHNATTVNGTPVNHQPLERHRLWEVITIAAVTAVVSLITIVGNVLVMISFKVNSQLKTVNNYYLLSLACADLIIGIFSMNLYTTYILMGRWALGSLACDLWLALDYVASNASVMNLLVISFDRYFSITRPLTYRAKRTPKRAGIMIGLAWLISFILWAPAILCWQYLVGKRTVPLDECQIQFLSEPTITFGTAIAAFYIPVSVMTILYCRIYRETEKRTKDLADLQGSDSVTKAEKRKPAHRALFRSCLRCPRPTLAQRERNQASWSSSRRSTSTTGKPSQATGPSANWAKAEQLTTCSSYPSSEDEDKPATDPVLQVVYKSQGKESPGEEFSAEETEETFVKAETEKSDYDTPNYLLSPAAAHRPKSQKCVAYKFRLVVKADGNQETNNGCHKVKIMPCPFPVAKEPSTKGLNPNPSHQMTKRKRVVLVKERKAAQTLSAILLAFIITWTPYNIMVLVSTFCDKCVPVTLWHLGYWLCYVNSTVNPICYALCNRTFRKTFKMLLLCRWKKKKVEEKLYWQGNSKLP
Protocol: (§1) PD102807 and Compounds A-K at concentrations of 1×10^−9 M, 1×10^−8 M, 1×10^−7 M, 1×10^−6 M, and 1×10^−5 M were tested in standard binding assays with radioligands and cell membranes with receptors. Compound binding was calculated as a percent inhibition of the binding of a radioactively labeled ligand specific for each target, and the Ki values were determined. For CHRM1, the binding assay was performed using [^3H]pirenzepine (2 nM) as a radioligand and membranes of CHO cells with human recombinant CHRM1 receptor. The incubation time was 60 minutes at room temperature. For CHRM2, the binding assay was performed using [^3H]AF-DX 384 (2 nM) as a radioligand and membranes of CHO cells with human recombinant CHRM2 receptor. The incubation time was also 60 minutes at room temperature. For CHRM3, the binding assay was performed using [^3H]4-DAMP (0.2 nM) as a radioligand and membranes of CHO cells with human recombinant CHRM3 receptor. The incubation time was also 60 minutes at room temperature. For CHRM4, the binding assay was performed using [^3H]4-DAMP (0.2 nM) as a radioligand and membranes of CHO cells with human recombinant CHRM4 receptor. The incubation time was also 60 minutes at room temperature. For CHRM5, the binding assay was performed using [^3H]4-DAMP (0.3 nM) as a radioligand and membranes of CHO cells with human recombinant CHRM5 receptor. The incubation time was also 60 minutes at room temperature.

[3] = target: T2, human recombinant CHRM2 receptor (Homo sapiens, UniProt P08172); experiment: Radioligand binding assay, CHRM2; conditions: [3H]AF-DX 384 (2 nM), CHO cell membranes, 60 minutes at room temperature; read-out: Ki M2
T2 construct: expressed in transfected cells; host or cells: CHO cells (membranes)
T2 sequence (P08172 1-466): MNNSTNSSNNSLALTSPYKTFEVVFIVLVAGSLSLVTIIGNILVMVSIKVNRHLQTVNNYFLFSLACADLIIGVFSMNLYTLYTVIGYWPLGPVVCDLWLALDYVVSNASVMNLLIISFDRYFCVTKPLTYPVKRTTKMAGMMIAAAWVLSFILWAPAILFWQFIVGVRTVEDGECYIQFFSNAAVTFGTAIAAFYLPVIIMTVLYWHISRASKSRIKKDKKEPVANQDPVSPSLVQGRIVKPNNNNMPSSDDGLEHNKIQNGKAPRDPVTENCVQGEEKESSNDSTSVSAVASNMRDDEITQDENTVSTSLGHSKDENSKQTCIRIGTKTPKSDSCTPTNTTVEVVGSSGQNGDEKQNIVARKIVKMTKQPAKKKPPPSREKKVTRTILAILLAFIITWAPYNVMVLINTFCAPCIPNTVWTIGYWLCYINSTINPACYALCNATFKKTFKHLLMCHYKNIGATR
Protocol: as §1

CHRM4 = target: T3, CHRM4 (Homo sapiens, UniProt P08173); experiment: Radioligand binding assay, CHRM4; set-up: expressed in transfected cells; host or cells: CHO cells (membranes); conditions: [3H]4-DAMP (0.2 nM), CHO cell membranes, 60 minutes at room temperature; read-out: Ki M4
T3 sequence (P08173 1-479): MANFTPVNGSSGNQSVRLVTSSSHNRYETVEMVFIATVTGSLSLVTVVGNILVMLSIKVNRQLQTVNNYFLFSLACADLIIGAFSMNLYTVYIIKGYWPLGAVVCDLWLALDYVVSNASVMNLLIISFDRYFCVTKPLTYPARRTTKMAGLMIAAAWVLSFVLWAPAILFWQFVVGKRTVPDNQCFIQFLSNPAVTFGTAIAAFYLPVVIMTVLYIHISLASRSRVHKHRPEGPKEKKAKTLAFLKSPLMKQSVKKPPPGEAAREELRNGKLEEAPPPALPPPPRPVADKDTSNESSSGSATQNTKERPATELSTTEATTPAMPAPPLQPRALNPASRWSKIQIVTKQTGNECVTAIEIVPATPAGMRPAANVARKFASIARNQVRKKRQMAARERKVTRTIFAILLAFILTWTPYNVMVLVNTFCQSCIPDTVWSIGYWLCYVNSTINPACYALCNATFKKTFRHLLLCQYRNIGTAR
Protocol: as §1

[4] = target: T4, human recombinant CHRM1 receptor (Homo sapiens, UniProt P11229); experiment: Radioligand binding assay, CHRM1; conditions: [3H]pirenzepine (2 nM), CHO cell membranes, 60 minutes at room temperature; read-out: Ki M1
T4 construct: expressed in transfected cells; host or cells: CHO cells (membranes)
T4 sequence (P11229 1-460): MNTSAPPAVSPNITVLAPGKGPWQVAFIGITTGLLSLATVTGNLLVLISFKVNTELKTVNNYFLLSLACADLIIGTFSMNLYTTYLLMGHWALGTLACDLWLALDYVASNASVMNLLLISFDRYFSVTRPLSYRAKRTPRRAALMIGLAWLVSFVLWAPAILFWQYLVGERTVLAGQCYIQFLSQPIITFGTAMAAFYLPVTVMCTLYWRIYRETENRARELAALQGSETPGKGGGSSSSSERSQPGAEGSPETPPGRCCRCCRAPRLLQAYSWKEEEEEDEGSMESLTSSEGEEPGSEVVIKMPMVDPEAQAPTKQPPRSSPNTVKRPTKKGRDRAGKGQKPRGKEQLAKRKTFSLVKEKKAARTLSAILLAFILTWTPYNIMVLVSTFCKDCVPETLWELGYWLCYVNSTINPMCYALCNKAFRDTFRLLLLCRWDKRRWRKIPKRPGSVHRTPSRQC
Protocol: as §1

Ki [2] | Ki [3] | Ki (CHRM4) | Ki [4] | SMILES | treatment of anemia in vivo (HCT, RBC, Hb) ([1]; 30 mg/kg or 100 mg/kg, C57bl/6 mice) | treatment of anemia in vivo (HCT, RBC, Hb) ([1]; subcutaneous injection, B 1.5, 3 or 5 mg/kg, I 0.5, 0.7 or 1 mg/kg)
3500 nM | 2200 nM | 1800 nM |  | CCOC(=O)c1c(C)[nH]c2ccc3c(c12)C[N+]1(C)CCc2cc(OC)ccc2C1O3 (single isomer, unassigned) [Compound A, 1-(ethoxycarbonyl)-9-methoxy-2,13-dimethyl-3,6a,11,12,13,14-hexahydroindolo[4′,5′:5,6][1,3]oxazino[2,3-a]isoquinolin-13-ium Iodide] | treat anemia in vivo | 
10000 nM | 1700 nM | 740 nM | 8500 nM | CCOC(=O)c1c(C)n(C)c2ccc3c(c12)C[N+]1(C)CCc2cc(OC)ccc2C1O3 (single isomer, unassigned) [Compound I, 1-(ethoxycarbonyl)-9-methoxy-2,3,13-trimethyl-3,6a,11,12,13,14-hexahydroindolo[4′,5′:5,6][1,3]oxazino[2,3-a]isoquinolin-13-ium Iodide] |  | treat anemia in vivo
